Each structure is given as a SMILES string.

Data set [1] deals with A20 tumors. Put plainly: Mouse syngeneic lymphoma A20 bilateral tumor model, single agent dose response. The format is in vivo. The following applies: Compound 15 alone i.t., two weekly doses. As for the experimental part:
The anti-tumor efficacy of Compound 15 adsorbed to Alhydrogel® was determined using the mouse syngeneic lymphoma A20 bilateral tumor model in female BALB/c mice.
A20 cells were grown in sterile conditions in a 37° C. incubator with 5% CO2 for two weeks. Cells were grown in RPMI 1640 medium with 2 mM L-glutamine adjusted to contain 1.5 g/L sodium bicarbonate, 4.5 g/L glucose, 10 mM HEPES, and 1.0 mM sodium pyruvate and supplemented with 0.05 mM 2-mercaptoethanol, 10% fetal bovine serum. Cells were passaged every 2-3 days. For the day of implant cells were lifted (passage 12) and re-suspended in HBSS at a concentration of 5×10^6 cells/100 μL. Cells were Radil tested for mycoplasma and murine viruses. For each mouse, 5×10^6 cells were implanted by subcutaneous injection into the right and left flank using a 28.5 g needle (100 μl injection volume). Tumor sizes were assessed three times a week once tumors were palpable. Tumor sizes were determined by using caliper measurements, with tumor volumes calculated using the formula: (Length×Width×Width)/2.
The female Balb/c mice bearing the A20 tumors were randomized into 7 groups (n=10 mice per group) 8 days post tumor cell implantation with an average tumor volume range of 111.40±23.57 mm^3. […]
Tumor volumes were measured by digital caliper 3 times a week and body weights of all animals were recorded throughout the study. […]

Data set [2] in a line: Mouse plasma PK, MC38 syngeneic tumor model, one week study. The class given is in vivo. The following applies: female, C57BL/6, mouse, 100 ug, 100 μg Compound 15, single i.t. injection, MC38 tumor bearing mice.
Protocol: A MC38 syngeneic mouse tumor model was used to investigate the systemic exposure of Compound 15 following: • a) a single intra-tumoral (i.t.) injection of 100 μg (˜4 mg/kg) of free form Compound 15 in 20 mM Tris buffer pH 7.4, • b) a single intra-tumoral (i.t.) injection of Compound 15 adsorbed to Alhydrogel® suspension at a 1:1.5 ratio (w/w) of Compound 15 to Alhydrogel®)-Suspension A described below and • c) a single subcutaneous (s.c.) injection of Compound 15 adsorbed to Alhydrogel® suspension at a 1:1.5 ratio (w/w) of Compound 15 to Alhydrogel®-Suspension A described below.
For each mouse, 0.25×10^6 cells were implanted with subcutaneously injection into right flank using a 28½ g needle (1004 injection volume). Female C57BL/6 mice bearing the MC38 tumors were randomized into separate groups (n=3-24 mice per group) 10 days post tumor cell implantation with an average tumor volume range of 95.05-194.36 mm^3.
Approximately 10 days after MC38 tumor implant, tumor bearing mice received a single dose of vehicle, 100 μg of free Compound 15 solution (2 mg/mL) or Compound 15 adsorbed to Alhydrogel (1:1.5 w/w; 97% bound) by direct intra-tumoral (i.t.) injection or subcutaneous (s.c.) injection. The dose volume was 50 μL per animal. Plasma samples were taken up to 7 days post dose at time points indicated in Table 11 (n=3 animal per time point).
Plasma concentrations of Compound 15 were quantified using a Liquid Chromatography/Mass Spectrometry (LC/MS/MS) assay. […] To 20 μL of each plasma sample or appropriately diluted plasma sample, 25 μL of internal standard solution was added, then mixed with 150 μL of extraction solvent (methanol/acetonitrile, 80/20 by volume) to precipitate plasma proteins. The samples were vortexed for 5 minutes then centrifuged with an Eppendorf Centrifuge 5810R (Eppendorf, Hamburg, Germany) at a setting of 4,000 rpm for 10 minutes at 4° C. Aliquot of supernatant (50 μL) was transferred to a clean 96-well plate and mixed with 100 μL of Milli-Q water. The mixed samples were injected (25 μL) onto a Waters XBridge C4 analytical column (2.1×50 mm, 3.5 μm), and mobile phases consisted of 0.1% formic acid in water (solvent A) and 0.1% formic acid in acetonitrile (solvent B). […]
The HPLC system, consisting of Agilent 1200 series binary pump (Agilent Technologies Inc.), Agilent 1200 series micro vacuum degasser (Agilent Technologies Inc.), CTC PAL-HTC autosampler (LEAP Technologies, Carborro, N.C., USA) was interfaced to a AB Sciex API 4000 QTrap mass spectrometer (AB Sciex LLC., Framingham, Mass., USA). […] The lower limit of quantitation (LLOQ) in plasma was 0.25 ng/mL. […]
A short description of data set [3]: Wistar rat subcutaneous PK, fixed aluminum hydroxide 5 mg/mL (Example 10). The format is in vivo. The protocol: The pharmacokinetic properties of Compound 15 were examined in naïve male Wistar rats following: • a) a single 200 μL subcutaneous (s.c.) injection of 600 μg of free form Compound 15 in 100 mM Tris buffer pH 7.4; • b) a single 200 μL subcutaneous (s.c.) injection of 50 μg of Compound 15 adsorbed to aluminum hydroxide at a 1:20 ratio (w/w) of Compound 15 to aluminum hydroxide-Suspension G described below; • and • c) a single 200 μL subcutaneous (s.c.) injection of 600 μg of Compound 15 adsorbed to aluminum hydroxide at a 1:1.7 ratio (w/w) of Compound 15 to aluminum hydroxide-Suspension F described below.
The systemic concentration of Compound 15 was evaluated following a single 200 μL subcutaneous injection of two different dose levels of Compound 15 adsorbed to aluminum hydroxide, where the aluminum hydroxide was at a fixed dose concentration of 5 mg/mL.
In this study, two groups male Wistar rats (n=3 per group) were injected subcutaneously (s.c.) with either 50 μg or 600 μg of Compound 15 absorbed to aluminum hydroxide. An injection volume of 200 μL of Suspension G and Suspension F was used to obtain 50 and 600 μg of Compound 15 absorbed to aluminum hydroxide, respectively. The injection volume of 200 μL per rat was not normalized to body weights of the rats. As described above the Compound 15/aluminum hydroxide ratio for Suspension F was 1:1.7 w/w, while for Suspension G it was 1:20 w/w.
Blood samples (˜100 μL each) were taken serially via saphenous bleed from each rat until 168 h post dose (see Table 9 for sampling schedule). Blood samples were centrifuged to separate plasma and the plasma samples were frozen at −20° C. prior to analysis using LC/MS/MS (as described in Example 5) to obtain the systemic concentrations of Compound 15.

The nature of data set [4]: in vivo. The following applies: female, C57/BL6, mouse, iv, 2 mg/kg.
[5] abbreviates: rat, sc, 600 ug, 600 μg Compound 15 s.c., male Wistar rats, plasma, Table 15 (free compound data from Example 9).

Turning to `Cc1cc(OCCOCCC(F)(F)P(=O)(O)O)ccc1CCc1cnc2c(N)nc3cc(CCC(=O)O)ccc3c2c1` [Compound 15, 3-(5-amino-2-(4-(2-(3,3-difluoro-3-phosphonopropoxy)ethoxy)-2-methylphenethyl)benzo[f][1,7]naphthyridin-8-yl)propanoic acid], the “tumor growth, both tumor sites” value in data set [1] was “no significant difference in both tumor sites”. In data set [2], the area under the curve AUC(0-inf) amounted to 6220 ng·h/mL, the maximum concentration (Cmax) is 10600 ng/mL and the Tmax was determined as 4.98 min. In addition, the half-life in data set [2] (other: intra-tumoral (i.t.) injection) was 159 min. Further, the “retention of Compound 15 at the local injection site” value in data set [3] (adsorbed onto aluminum hydroxide, following subcutaneous injection, rats) is “up to 1 week”. In data set [3] (setting [5]), the total exposure AUC(0-inf) came to 2560 ng·h/mL, the highest concentration (Cmax) is 3660 ng/mL, the Tmax was found to be 15 min and the half-life is 126 min. Also, in data set [4], the MRT was 10.2 min, the clearance was 18.1 mL/min/kg and the half-life was 60 min.

As usually defined, the AUC(0-inf) is the area under the concentration-time curve extrapolated to infinity. The term Cmax denotes the highest concentration seen after dosing. By Tmax is commonly meant the time at which the peak concentration occurs. As a reminder, the half-life is how long it takes for the measured level to halve. Low readings indicate rapid decline, high ones slow decline. As usually defined, the MRT is a mean duration of stay, worked out from the concentration-time curve. One may read the clearance as the rate of elimination divided by the concentration. A low value points to a low capacity for elimination.

For the origin of these results see patent US11752162B2, “Compounds and compositions for treating solid tumors by intratumoral administration” (Novartis AG, priority 2017, dated 2023).
